# Measured values published in publication PMC9292375, “Structural basis of an epitope tagging system derived from Haloarcula marismortui bacteriorhodopsin I D94N and its monoclonal antibody GD‐26” (The Febs Journal, 2021).
# Values joined by “and” are separate entries in the source; they are usually repeats but may differ in a detail not shown here. Equal values may be shown once. “Also recorded” adds a separate entry of the source. Where a SMILES comes first, the peptide text is derived from it.
# T1: TD peptide (GTGATPADD), peptide V from the C terminus of HmBRI D94N (Haloarcula marismortui HmBRI C terminus …)
# T1 construct: nine residues at the C terminus of Haloarcula marismortui bacteriorhodopsin I (HmBRI); residue numbers 1-9 count on: the TD peptide; also called TD tag; wild-type TD peptide; source: synthetic peptide
# T1 chain: GTGATPADD
# Legend:
# [1] = Protease resistance of the TD tag during expression and purification; settings: without protease inhibitors; tag remains attached and detectable after expression and purification from bacterial and mammalian cell systems
# G196 = target: G196; parameters: method as in PMID 28266535; settings: anti‐tag antibody G196; read-out: Affinity (K D); cited from earlier work
# M2 = settings: read-out: Affinity (K D); anti‐tag antibody M2; cited from earlier work
# 9E10 = settings: anti‐tag antibody 9E10; read-out: Affinity (K D); cited from earlier work
# GD‐26 Fab = experiment: ITC titration of peptides or TD‐tagged eGFP into GD‐26 Fab; type: binding, mouse; settings: 25 °C, Tris buffer pH 7.5, engineered synthetic peptides, single experiment (n = 1)
# Protocol: The titration experiments were performed with a MicroCal PEAQ‐ITC Automated (Malvern Panalytical, Malvern, UK) at 25 °C. The ITC sample cell contained 200 μL of GD‐26 IgG or GD‐26 Fab in the Tris buffer (50 mM Tris, 150 mM NaCl, pH 7.5). In the syringe, 40 μL of synthetic peptides (peptide III–V) or TD‐tagged eGFP in the same Tris buffer was injected into the sample cell using 20 injections (0.4 μL for the first injection). Prior to data analysis, heats of dilution generated by injecting the peptide solution into the buffer in the sample cell were subtracted from the experimental data. The experimental raw data were analysed using the MicroCal PEAQ‐ITC Analysis software package provided with the instrument. The first data point was removed for fitting the data to a one‐set‐of‐sites model. After entering sample concentrations, the inbuilt function for fitting is operated by clicking iteration button until a good fit to the experimental data points of the isotherms is achieved and Chi‐squared is no longer decreasing. The final fitting parameters including K D, changes in enthalpy (ΔH), entropy (ΔS) and Gibb's free energy (ΔG) and binding stoichiometry were generated by the same software.
# Nanobody ALFA = target: Nanobody ALFA; parameters: method as in PMID 31562305; settings: read-out: Affinity (K D); cited from earlier work
# 4B2 = target: 4B2; parameters: method as in PMID 24480187; settings: anti‐tag antibody 4B2; read-out: Affinity (K D); cited from earlier work
# [2] = target: T1, TD peptide (GTGATPADD), peptide V from …; experiment: ITC; synthetic peptide in the syringe titrated into GD-26 Fab or GD-26 IgG (10 μM) in the cell; 25 °C; 50 mM Tris, 150 mM NaCl, pH 7.5; one-set-of-sites model; settings: both partners purified
# [3] = Storage stability of GD‐26 IgG; type: physicochemical; settings: stored at 4 °C in Tris buffer
molecule,measurement,setting,value
C[C@H](NC(=O)CNC(=O)[C@@H](NC(=O)CN)[C@@H](C)O)C(=O)N[C@H](C(=O)N1CCC[C@H]1C(=O)N[C@@H](C)C(=O)N[C@@H](CC(=O)O)C(=O)N[C@@H](CC(=O)O)C(=O)O)[C@@H](C)O [TD] (H-GTGATPADD-OH),cellular protease resistance and proteolytic stability,[1],good cellular protease resistance and proteolytic stability
DLVPR,Kd,G196,1.25 nM
DYKDDDDK [FLAG],Kd,M2,3 to 31 nM
EQKLISEEDL [c‐Myc],Kd,9E10,2.2 to 560 nM
"GTGATPA [C2, engineered TD peptide, Asp9 and Asp8 depleted]",K D,GD‐26 Fab,complete loss of binding; also recorded: No binding
SRLEEELRRRLTE [ALFA],Kd,Nanobody ALFA,0.026 nM
"TPADD [N4, engineered TD peptide, Gly1 to Ala4 deleted]",K D,GD‐26 Fab,completely diminished its capability to bind; also recorded: No binding
YPYDVPDYA [HA],Kd,4B2,1.6 nM
"GD-26 IgG (recombinant monoclonal antibody GD-26, mouse IgG2a) (antibody, V domains shown, PDB 7DOH); Mouse IgG2a isotype; the same light-chain plasmid as for the Fab; source: Expi293F, transient co-transfection, secreted; purified (HiTrap Protein G, Superdex 200 gel filtration); copies: 2 + 2) VH: QVQLRQSGPELVKPGASVKMSCRASGYTFTNYNIHWVRQRPGQGLEWIGWIYPVDGTTKYNEKFKDKTTLTSDKSSSTAYMSLSGLTSEDSAIYFCARGLDNWGQGTSVTVSS VL: DVVLTQTPLSLSVTIGQPASISCRSSQRLLYSNGKTYLNWFQQRPGQAPKYLMFQVSKLGPGIPARFSGSGSETDFTLKISRVEAEDLGVYYCFQGTFFPHTFGGGTKLEMK",Kd,[2],22.6 nM and 18.8 nM
same,dH,[2],-51 kJ/mol
same,stoichiometry N,[2],2.28 sites and 2.27 sites
"GD‐26 IgG: recombinant monoclonal antibody, mouse IgG2a isotype, raised against HmBRI D94N (antibody, V domains shown) VH: QVQLRQSGPELVKPGASVKMSCRASGYTFTNYNIHWVRQRPGQGLEWIGWIYPVDGTTKYNEKFKDKTTLTSDKSSSTAYMSLSGLTSEDSAIYFCARGLDNWGQGTSVTVSS VL: DVVLTQTPLSLSVTIGQPASISCRSSQRLLYSNGKTYLNWFQQRPGQAPKYLMFQVSKLGPGIPARFSGSGSETDFTLKISRVEAEDLGVYYCFQGTFFPHTFGGGTKLEMK",long‐term stability on storage,[3],over a year
